Structures can show the parent of a compound that is named as a salt.
Molecular target: CK2A1 (CK2α/β) (Homo sapiens, UniProt P68400)
Assay: CK2 kinase assay, CK2A1 (CK2α/β)
Type: biochemical
Details: Table A; read-out: CK2A1 (CK2α/β) (IC50)

Sequence of CK2A1 (CK2α/β) (P68400 whole entry, species assumed): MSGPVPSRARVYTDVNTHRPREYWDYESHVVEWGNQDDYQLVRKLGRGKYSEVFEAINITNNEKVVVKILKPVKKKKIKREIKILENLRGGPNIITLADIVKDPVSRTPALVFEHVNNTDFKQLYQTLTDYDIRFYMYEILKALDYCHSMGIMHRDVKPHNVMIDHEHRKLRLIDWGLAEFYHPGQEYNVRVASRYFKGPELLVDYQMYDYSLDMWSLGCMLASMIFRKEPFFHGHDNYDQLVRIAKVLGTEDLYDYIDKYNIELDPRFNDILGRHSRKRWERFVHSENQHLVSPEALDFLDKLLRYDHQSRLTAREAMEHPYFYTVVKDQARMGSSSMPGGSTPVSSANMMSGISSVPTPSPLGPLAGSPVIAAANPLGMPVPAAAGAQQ
Sequence of CK2A1 (CK2α/β) (P67870 whole entry partner, species assumed): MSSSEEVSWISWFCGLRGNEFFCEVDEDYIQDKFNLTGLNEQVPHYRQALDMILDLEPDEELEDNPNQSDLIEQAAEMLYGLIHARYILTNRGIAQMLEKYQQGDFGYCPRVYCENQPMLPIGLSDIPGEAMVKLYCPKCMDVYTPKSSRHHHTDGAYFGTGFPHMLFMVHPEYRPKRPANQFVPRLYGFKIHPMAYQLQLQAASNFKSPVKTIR

Structure (SMILES): COC(=O)N1CCN(Cc2cc(C#N)cc(Nc3nc(NC4CC4)c4ncc(C#N)n4n3)c2Cl)CC1 [Example 478, methyl 4-[(2-chloro-5-cyano-3-{[7-cyano-4-(cyclopropylamino)imidazo[2,1-f][1,2,4]triazin-2-yl]amino}phenyl)methyl]piperazine-1-carboxylate]
- IC50: 1.31 nM

Structure (SMILES): COC(=O)NCC1CN(c2cc(C#N)cc(Nc3nc(NC4CC4)c4ncc(C#N)n4n3)c2Cl)CCN1C (stereo not drawn) [Example 713, methyl N-{[4-(2-chloro-5-cyano-3-{[7-cyano-4-(cyclopropylamino)imidazo[2,1-f][1,2,4]triazin-2-yl]amino}phenyl)-1-methylpiperazin-2-yl]methyl}carbamate]
- IC50: 5.48 nM

Structure (SMILES): CN1CCN(CC(O)c2cc(C#N)cc(Nc3nc(NC4CC4)c4ncc(C#N)n4n3)c2Cl)CC1 (stereo not drawn) [Example 686, 2-((2-chloro-5-cyano-3-(1-hydroxy-2-(4-methylpiperazin-1-yl)ethyl)phenyl)amino)-4-(cyclopropylamino)imidazo[2,1-f][1,2,4]triazine-7-carbonitrile]
- IC50: 1.3 nM

Structure (SMILES): N#Cc1cc(CN2CCNCC2)c(Cl)c(Nc2nc(NC3CC3)c3ncc(C#N)n3n2)c1 [Example 668, 2-((2-chloro-5-cyano-3-(piperazin-1-ylmethyl)phenyl)amino)-4-(cyclopropylamino)imidazo[2,1-f][1,2,4]triazine-7-carbonitrile]
- IC50: 0.76 nM

Structure (SMILES): N#Cc1cc(CN2CCNCC(O)C2)c(Cl)c(Nc2nc(NC3CC3)c3ncc(C#N)n3n2)c1 (stereo not drawn) [Example 669, 2-((2-chloro-5-cyano-3-((6-hydroxy-1,4-diazepan-1-yl)methyl)phenyl)amino)-4-(cyclopropylamino)imidazo[2,1-f][1,2,4]triazine-7-carbonitrile]
- IC50: 0.52 nM

Structure (SMILES): COCCNCC(O)c1cc(C#N)cc(Nc2nc(NC3CC3)c3ncc(C#N)n3n2)c1Cl (stereo not drawn) [Example 685, 2-((2-chloro-5-cyano-3-(1-hydroxy-2-((2-methoxyethyl)amino)ethyl)phenyl)amino)-4-(cyclopropylamino)imidazo[2,1-f][1,2,4]triazine-7-carbonitrile]
- IC50: 0.95 nM

Structure (SMILES): N#Cc1cc(Nc2nc(NC3CC3)c3ncc(C#N)n3n2)c(Cl)c(N2CC[C@@H](NC3COC3)[C@H](O)C2)c1 (racemic) [Example 301, (+/−)2-((2-chloro-5-cyano-3-((3R,4R)-3-hydroxy-4-(oxetan-3-ylamino)piperidin-1-yl)phenyl)amino)-4-(cyclopropylamino)imidazo[2,1-f][1,2,4]triazine-7-carbonitrile, HCl]
- IC50: 0.72 nM

Structure (SMILES): CCNc1nc(Nc2cc(C#N)cc(C3CN(C[C@H](C)O)C3)c2Cl)nn2c(C#N)cnc12 [Example 368, (S)-2-((2-chloro-5-cyano-3-(1-(2-hydroxypropyl)azetidin-3-yl)phenyl)amino)-4-(ethylamino)imidazo[2,1-f][1,2,4]triazine-7-carbonitrile]
- IC50: 3.62 nM

Structure (SMILES): N#Cc1cc(Nc2nc(NC3CC3)c3ncc(C#N)n3n2)c(Cl)c(N2CCN(CC3(O)COC3)CC2)c1 [Example 580, 2-[(2-chloro-5-cyano-3-{4-[(3-hydroxyoxetan-3-yl)methyl]piperazin-1-yl}phenyl)amino]-4-(cyclopropylamino)imidazo [2,1-f][1,2,4]triazine-7-carbonitrile]
- IC50: 3.2 nM

Structure (SMILES): N#Cc1cc(Nc2nc(NC3CC3)c3ncc(C#N)n3n2)c(Cl)c(N2CCOC(CO)C2)c1 (racemic) [Example 697, (+/−)-2-((2-chloro-5-cyano-3-(2-(hydroxymethyl)morpholino)phenyl)amino)-4-(cyclopropylamino)imidazo[2,1-f][1,2,4]triazine-7-carbonitrile]
- IC50: 0.2 nM

Structure (SMILES): CCNc1nc(Nc2cc(C#N)cc(N3CC[C@@H](NC(=O)OC)[C@H](OCOP(=O)(O)O)C3)c2Cl)nn2c(C#N)cnc12 [Example 345, sodium (((3R,4R)-1-(2-chloro-5-cyano-3-((7-cyano-4-(ethylamino)imidazo[2,1-f][1,2,4]triazin-2-yl)amino)phenyl)-4-((methoxycarbonyl)amino)piperidin-3-yl)oxy)methyl phosphate]
- IC50: 0.8 nM

Structure (SMILES): N#Cc1cc(Nc2nc(NC3CC3)c3ncc(C#N)n3n2)c(Cl)c(C2(O)CCN(C3COC3)CC2)c1 [Example 648, 2-((2-chloro-5-cyano-3-(4-hydroxy-1-(oxetan-3-yl)piperidin-4-yl)phenyl)amino)-4-(cyclopropylamino)imidazo[2,1-f][1,2,4]triazine-7-carbonitrile]
- IC50: 0.85 nM

Structure (SMILES): CC(=O)N1CCC2(CC1)CN(c1cc(C#N)cc(Nc3nc(NC4CC4)c4ncc(C#N)n4n3)c1Cl)C2 [Example 806, 2-((3-(7-acetyl-2,7-diazaspiro[3.5]nonan-2-yl)-2-chloro-5-cyanophenyl)amino)-4-(cyclopropylamino)imidazo[2,1-f][1,2,4]triazine-7-carbonitrile]
- IC50: 0.84 nM

Structure (SMILES): N#Cc1cc(Nc2nc(NC3CC3)c3ncc(C#N)n3n2)c(Cl)c(N2CCC[C@@H](N)C2)c1 [Example 40, (R)-2-(3-(3-aminopiperidin-1-yl)-2-chloro-5-cyanophenylamino)-4-(cyclopropylamino)imidazo [1,2-f][1,2,4]triazine-7-carbonitrile]
- IC50: 2.49 nM

Structure (SMILES): N#Cc1cnc2c(NC3CC3)nc(Nc3cc(C(F)F)cc(N4CCN(C5CS(=O)(=O)C5)CC4)c3Cl)nn12 [Example 272, 2-((2-chloro-5-(difluoromethyl)-3-(4-(1,1-dioxidothietan-3-yl)piperazin-1-yl)phenyl)amino)-4-(cyclopropylamino)imidazo[2,1-f][1,2,4]triazine-7-carbonitrile]
- IC50: 0.58 nM

Structure (SMILES): CCNc1nc(Nc2cc(C#N)cc(N3CC[C@@H](NC(=O)OC)[C@H](N(C)[C@@H](C)C(N)=O)C3)c2Cl)nn2c(C#N)cnc12 [Example 768, methyl N-[(3R,4R)-3-{[(1S)-1-carbamoylethyl](methyl)amino}-1-(2-chloro-5-cyano-3-{[7-cyano-4-(ethylamino)imidazo[2,1-f] [1,2,4]triazin-2-yl]amino}phenyl)piperidin-4-yl] carbamate]
- IC50: 4 nM

Structure (SMILES): CN1CC(N(C)C2CCN(c3cc(C#N)cc(Nc4nc(NC5CC5)c5ncc(C#N)n5n4)c3Cl)CC2)CC1=O (stereo not drawn) [Example 714, 2-((2-Chloro-5-cyano-3-(4-(methyl(1-methyl-5-oxopyrrolidin-3-yl)amino)piperidin-1-yl)phenyl)amino)-4-(cyclopropylamino)imidazo[2,1-f][1,2,4]triazine-7-carbonitrile]
- IC50: 44.6 nM

Structure (SMILES): CC1(CN2CCN(c3cc(C(F)F)cc(Nc4nc(NC5CC5)c5ncc(C#N)n5n4)c3Cl)CC2)COC1 [Example 264, 2-((2-chloro-5-(difluoromethyl)-3-(4-((3-methyl-3-oxetanyl)methyl)-1-piperazinyl)phenyl)amino)-4-(cyclopropylamino)imidazo[2,1-f][1,2,4]triazine-7-carbonitrile]
- IC50: 2.97 nM

Structure (SMILES): CNC(=O)CN1CCC(c2cc(C#N)cc(Nc3nc(NC4CC4)c4ncc(C#N)n4n3)c2Cl)CC1 [Example 642, 2-(4-(2-chloro-5-cyano-3-((7-cyano-4-(cyclopropylamino)imidazo[2,1-f][1,2,4]triazin-2-yl)amino)phenyl)piperidin-1-yl)-N-methylacetamide]
- IC50: 0.76 nM

Structure (SMILES): N#Cc1cc(Nc2nc(NC3CC3)c3ncc(C#N)n3n2)c(Cl)c(N2CCC3CCN(CC(O)CF)C3C2)c1 (racemic) [Example 459, (+/−)-2-((2-chloro-5-cyano-3-(1-(3-fluoro-2-hydroxypropyl)hexahydro-1H-pyrrolo[2,3-c]pyridin-6(2H)-yl)phenyl)amino)-4-(cyclopropylamino)imidazo[2,1-f][1,2,4]triazine-7-carbonitrile]
- IC50: 1.27 nM

Structure (SMILES): N#Cc1cc(Nc2nc(NC3CC3)c3ncc(C#N)n3n2)c(Cl)c(N2CCN(C3CN(C(=O)C4CCC(=O)N4)C3)CC2)c1 (stereo not drawn) [Example 506, 2-[(2-chloro-5-cyano-3-{4-[1-(5-oxopyrrolidine-2-carbonyl)azetidin-3-yl]piperazin-1-yl}phenyl)amino]-4-(cyclopropylamino)imidazo[2,1-f][1,2,4]triazine-7-carbonitrile]
- IC50: 4.33 nM

Structure (SMILES): COC(=O)Nc1cc(Nc2nc(NC3CC3)c3ncc(C#N)n3n2)c(Cl)c(N2CC(N3CCOCC3)C2)c1 [Example 201, methyl (4-chloro-3-((7-cyano-4-(cyclopropylamino)imidazo[2,1-f][1,2,4]triazin-2-yl)amino)-5-(3-(4-morpholinyl)-1-azetidinyl)phenyl)carbamate]
- IC50: 2.95 nM

Structure (SMILES): CC(=O)NN1CCN(c2cc(C#N)cc(Nc3nc(NC4CC4)c4ncc(C#N)n4n3)c2Cl)CC1 [Example 789, N-(4-(2-chloro-5-cyano-3-((7-cyano-4-(cyclopropylamino)imidazo[2,1-f][1,2,4]triazin-2-yl)amino)phenyl)piperazin-1-yl)acetamide]
- IC50: 0.61 nM

Structure (SMILES): CCNc1nc(Nc2cc(C#N)cc(N3CC[C@@H](NC(=O)OC)C(N(C)C[C@H](O)CO)C3)c2Cl)nn2c(C#N)cnc12 (stereo partly drawn) [Example 772, methyl N-[(4R)-1-(2-chloro-5-cyano-3-{[7-cyano-4-(ethylamino)imidazo[2,1-f][1,2,4]triazin-2-yl]amino}phenyl)-3-{[(2S)-2,3-dihydroxypropyl](methyl)amino}piperidin-4-yl]carbamate]
- IC50: 14.1 nM

Structure (SMILES): N#Cc1cc(Nc2nc(NC3CC3)c3ncc(C#N)n3n2)c(Cl)c(N2CCN(CC(N)=O)CC2=O)c1 [Example 623, 2-(4-(2-chloro-5-cyano-3-((7-cyano-4-(cyclopropylamino)imidazo[2,1-f][1,2,4]triazin-2-yl)amino)phenyl)-3-oxopiperazin-1-yl)acetamide]
- IC50: 3.05 nM

Structure (SMILES): CCNc1nc(Nc2cc(C#N)cc(N3CCC(NC(=O)OC)CC3)c2Cl)nn2c(C#N)cnc12 [Example 330, methyl (1-(2-chloro-5-cyano-3-((7-cyano-4-(ethylamino)imidazo[2,1-f][1,2,4]triazin-2-yl)amino)phenyl)piperidin-4-yl)carbamate]
- IC50: 0.55 nM

Structure (SMILES): CCNc1nc(Nc2cc(C#N)cc(N3CCN(CC(C)(CO)CO)CC3)c2Cl)nn2c(C#N)cnc12 [Example 604, 2-[(2-chloro-5-cyano-3-{4-[3-hydroxy-2-(hydroxymethyl)-2-methylpropyl]piperazin-1-yl}phenyl)amino]-4-(ethylamino)imidazo[2,1-f][1,2,4]triazine-7-carbonitrile]
- IC50: 0.99 nM
